In PubChem BioAssay (NCI):
Values joined by “and” are separate entries in the source; they are usually repeats but may differ in a detail not shown here. Identical values can stand only once.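 Dose response: 5 concentrations. Exposure: 48 h. Format: 96-well plates. Endpoint: linear interpolation; highest concentration if not reached. GI50: concentration for 50% inhibition of growth. At the TGI there is no net growth.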

What was measured:
Experiment in all cases: inhibition of tumour cell growth, NCI panel, 48 h
HCT-15 colon = test system: HCT-15 colon
K-562 leukemia = test system: K-562 leukemia
SNB-75 CNS = test system: SNB-75 CNS
HCC-2998 colon = test system: HCC-2998 colon
OVCAR-8 ovarian = test system: OVCAR-8 ovarian
SW-620 colon = test system: SW-620 colon
UACC-62 melanoma = test system: UACC-62 melanoma
SN12C renal = test system: SN12C renal
OVCAR-4 ovarian = test system: OVCAR-4 ovarian
IGROV1 ovarian = test system: IGROV1 ovarian

`COc1ccc2nc3cc([N+](=O)[O-])ccc3c(NNc3ccccc3)c2c1` was tested, and the GI50 (HCT-15 colon) was 12 µM, the TGI (HCT-15 colon) was > 100 µM and 67.2 µM and the GI50 (K-562 leukemia) was 3.49 µM. The TGI (K-562 leukemia) was 29.4 µM and > 100 µM, the GI50 (SNB-75 CNS) was 15.6 µM and the TGI (SNB-75 CNS) was 35.7 µM and > 100 µM. For the same compound, the TGI (HCC-2998 colon) was 46.3 µM, the GI50 (OVCAR-8 ovarian) was 6.77 µM and the TGI (OVCAR-8 ovarian) was 22.5 µM and > 100 µM. It also gave a GI50 (SW-620 colon) of 19.8 µM, a TGI (SW-620 colon) greater than 100 µM and a GI50 (UACC-62 melanoma) of 5.93 µM. For the same compound, the TGI (UACC-62 melanoma) was 22.8 µM and 25.1 µM, the GI50 (SN12C renal) was 18.9 µM and the TGI (SN12C renal) was 71.1 µM and > 74.9 µM. For the same compound, the GI50 (OVCAR-4 ovarian) was 11.6 µM, the TGI (OVCAR-4 ovarian) was 36.1 µM and > 100 µM and the GI50 (IGROV1 ovarian) was 15.4 µM. The TGI (IGROV1 ovarian) was 68.6 µM and 27.9 µM.
With `CC(C)(C)NC(=O)[C@H]1CC[C@H]2[C@@H]3CC[C@H]4NC(=O)C=C[C@]4(C)[C@H]3CC[C@]12C` the GI50 (HCT-15 colon) was greater than 100 µM, the TGI (HCT-15 colon) was greater than 100 µM and the GI50 (K-562 leukemia) was 53.5 µM and > 100 µM. It also gave a TGI (K-562 leukemia) greater than 100 µM, a GI50 (SNB-75 CNS) greater than 100 µM and a TGI (SNB-75 CNS) greater than 100 µM. For the same compound, the GI50 (HCC-2998 colon) was greater than 100 µM, the TGI (HCC-2998 colon) was greater than 100 µM and the GI50 (OVCAR-8 ovarian) was greater than 100 µM. It also gave a TGI (OVCAR-8 ovarian) greater than 100 µM, a GI50 (SW-620 colon) greater than 100 µM and a TGI (SW-620 colon) greater than 100 µM. It also gave a GI50 (UACC-62 melanoma) greater than 100 µM, a TGI (UACC-62 melanoma) greater than 100 µM and a GI50 (SN12C renal) greater than 100 µM. The TGI (SN12C renal) was greater than 100 µM, the GI50 (OVCAR-4 ovarian) was greater than 100 µM and the TGI (OVCAR-4 ovarian) was greater than 100 µM. For the same compound, the GI50 (IGROV1 ovarian) was greater than 100 µM and the TGI (IGROV1 ovarian) was greater than 100 µM.
`C[C@@H](NC(=O)c1ncnc(N)c1Cl)c1ncc(C(=O)Nc2cc(C(F)(F)F)c(Cl)cn2)s1` was tested, and the GI50 (HCT-15 colon) was 21.9 µM, the TGI (HCT-15 colon) was greater than 100 µM and the GI50 (K-562 leukemia) was 0.462 µM. It also gave a TGI (K-562 leukemia) greater than 45.9 µM, a GI50 (SNB-75 CNS) of 23.1 µM and a TGI (SNB-75 CNS) of 94.4 µM. For the same compound, the GI50 (HCC-2998 colon) was 13.7 µM, the TGI (HCC-2998 colon) was 40.7 µM and the GI50 (OVCAR-8 ovarian) was 15.1 µM. The TGI (OVCAR-8 ovarian) was 40.8 µM, the GI50 (SW-620 colon) was 11 µM and the TGI (SW-620 colon) was greater than 75.5 µM. The GI50 (UACC-62 melanoma) was 0.402 µM, the TGI (UACC-62 melanoma) was 8.7 µM and the GI50 (SN12C renal) was 19.9 µM. The TGI (SN12C renal) was greater than 93.7 µM, the GI50 (OVCAR-4 ovarian) was 20.7 µM and the TGI (OVCAR-4 ovarian) was 73.3 µM. It also gave a GI50 (IGROV1 ovarian) of 10.8 µM and a TGI (IGROV1 ovarian) of 39.6 µM.
Compound `C[C@H](CS)C(=O)N1c2ccccc2C[C@H]1C(=O)O` has a TGI (HCT-15 colon) greater than 100 µM, a TGI (K-562 leukemia) greater than 100 µM and a TGI (SNB-75 CNS) greater than 100 µM. It also gave a TGI (HCC-2998 colon) greater than 100 µM, a TGI (OVCAR-8 ovarian) greater than 100 µM and a TGI (SW-620 colon) greater than 100 µM. The TGI (UACC-62 melanoma) was greater than 100 µM, the TGI (SN12C renal) was greater than 100 µM and the TGI (OVCAR-4 ovarian) was greater than 100 µM. The TGI (IGROV1 ovarian) was greater than 100 µM.
Work on `Cc1ccc(Cl)cc1NC(=O)c1cc2ccccc2cc1O` yielded a GI50 (HCT-15 colon) of 0.506 µM, a GI50 (K-562 leukemia) of 0.365 µM and a TGI (K-562 leukemia) of 10.1 µM. The GI50 (SNB-75 CNS) was 0.52 µM, the TGI (SNB-75 CNS) was 15.3 µM and the GI50 (HCC-2998 colon) was 0.692 µM. For the same compound, the TGI (HCC-2998 colon) was 2.47 µM, the GI50 (OVCAR-8 ovarian) was 0.356 µM and the TGI (OVCAR-8 ovarian) was 12.4 µM. It also gave a GI50 (SW-620 colon) of 0.414 µM, a TGI (SW-620 colon) greater than 100 µM and a GI50 (UACC-62 melanoma) of 0.308 µM. It also gave a TGI (UACC-62 melanoma) of 2.65 µM, a GI50 (SN12C renal) of 0.265 µM and a TGI (SN12C renal) of 1.92 µM. The GI50 (OVCAR-4 ovarian) was 0.409 µM, the TGI (OVCAR-4 ovarian) was greater than 100 µM and the GI50 (IGROV1 ovarian) was 0.189 µM. For the same compound, the TGI (IGROV1 ovarian) was 3.95 µM.
In the case of `COC1[C@H](NC(=O)OC(C)(C)C)C(=O)N1Cc1ccccc1` (stereo partly drawn), the TGI (HCT-15 colon) is reported as greater than 100 µM, the TGI (K-562 leukemia) is reported as greater than 100 µM and the TGI (SNB-75 CNS) is reported as greater than 100 µM. For the same compound, the TGI (HCC-2998 colon) was greater than 100 µM, the TGI (OVCAR-8 ovarian) was greater than 100 µM and the TGI (SW-620 colon) was greater than 100 µM. The TGI (UACC-62 melanoma) was greater than 100 µM, the TGI (SN12C renal) was greater than 100 µM and the TGI (OVCAR-4 ovarian) was greater than 100 µM. For the same compound, the TGI (IGROV1 ovarian) was greater than 100 µM.
Work on `O=CNc1ccc(S(=O)(=O)c2ccc(NC=O)cc2)cc1` yielded a TGI (HCT-15 colon) greater than 100 µM, a TGI (K-562 leukemia) greater than 100 µM and a TGI (SNB-75 CNS) greater than 100 µM. The TGI (HCC-2998 colon) was greater than 100 µM, the TGI (OVCAR-8 ovarian) was greater than 100 µM and the TGI (SW-620 colon) was greater than 100 µM. It also gave a TGI (UACC-62 melanoma) greater than 100 µM, a TGI (SN12C renal) greater than 100 µM and a TGI (OVCAR-4 ovarian) greater than 100 µM. The TGI (IGROV1 ovarian) was greater than 100 µM.
Compound `OCc1ccc(N2CCc3cc(F)ccc3C2)cc1Cl` has a GI50 (HCT-15 colon) of 3.98 µM, a TGI (HCT-15 colon) of 21.2 µM and a GI50 (K-562 leukemia) of 0.125 µM. It also gave a TGI (K-562 leukemia) of 17.2 µM, a GI50 (SNB-75 CNS) of 15.1 µM and a TGI (SNB-75 CNS) of 28.6 µM. For the same compound, the GI50 (HCC-2998 colon) was 1.58 µM, the TGI (HCC-2998 colon) was 12.8 µM and the GI50 (OVCAR-8 ovarian) was 7.31 µM. It also gave a TGI (OVCAR-8 ovarian) of 20.8 µM, a GI50 (SW-620 colon) of 0.17 µM and a TGI (SW-620 colon) of 15.8 µM. The GI50 (UACC-62 melanoma) was 0.0256 µM, the TGI (UACC-62 melanoma) was 0.198 µM and the GI50 (SN12C renal) was 10.9 µM. It also gave a TGI (SN12C renal) of 23.2 µM, a GI50 (OVCAR-4 ovarian) of 0.0277 µM and a TGI (OVCAR-4 ovarian) of 0.354 µM. The GI50 (IGROV1 ovarian) was 0.017 µM and the TGI (IGROV1 ovarian) was 0.0941 µM.
